The results in this text go back to patent US8193351B2, “HSP90 inhibitor” (Chugai Seiyaku Kabushiki Kaisha, priority 2006, dated 2012).

The test system of one test is HCT116 cells. In words: Measurement of cell growth inhibition (Cell Counting Kit-8, four days). In kind it is cell-based. As to conditions: Homo sapiens, HCT-116, 96 h; HCT116 colon cancer cell line, four days culture; read-out: Cell growth inhibitory activity (IC50, μM) HCT116. Here is the method: Cell growth inhibitory activities of the compounds of the present invention represented by formula (1) were measured by the following method.
Cells were maintained under conditions recommended by the provider of each cell line. Cells suspended in a medium were added to solutions containing various concentrations of the test substance, and the cells were cultured at 37° C. in a 5% CO2 incubator. Four days later, Cell Counting Kit-8 was added, and absorbance measurements were taken following the protocol included in the kit.
Background: Tetrazolium dyes change colour on reduction, which living cells bring about.

Another test deals with T1, Human HSP90 alpha (Homo sapiens, UniProt P07900).
T1 construct: made in house; host or cells: E. coli BL21 codon plus (Stratagene)
As to the kind of experiment: Measurement of HSP90 enzyme inhibitory activity (ATPase, malachite green). In kind it is biochemical. As to conditions: purified human HSP90 alpha, 1 mM ATP added, 37° C., two hours; read-out: Enzyme inhibitory activity (IC50, μM) Human HSP 90α. Here is the method: HSP90 enzyme inhibitory activity of the compounds of the present invention represented by formula (1) was measured by the following method. Among the 6-phenyl-N-phenyl-(1,3,5)triazin/(1,3)pyrimidin-2,4-diamine derivatives which are known LPAAT-β inhibitors, the following two compounds were used as comparative compounds, and their HSP90 enzyme inhibitory activities were measured similarly by the following method.
Introduction of pETHuHSP90a into E. coli (BL21 codon plus; Stratagene) was followed by O/N incubation in the presence of 0.1 mM IPTG, and the collected E. coli cells were disrupted by ultrasonication in a Lysis buffer (50 mM Tris-HCl (pH8.0), 10 mM MgCl2, 0.1% Triton X-100, Protease inhibitor cocktail tablets (Roche Diagnostics)). The cell lysate solution was centrifuged (10,000 rpm×30 minutes), and the supernatant obtained after centrifugation was used as a crude extract. The crude extract was fractionated using HisPrep FF column and HiTrap Q column (Amersham) to prepare a purified enzyme solution.
An enzyme solution for assays was prepared by dilution of the purified enzyme solution using an assay buffer (50 mM Tris HCl pH7.6, 20 mM KCl, 5 mM MgCl2).
10 μL each of various concentrations of the test substances (10% DMSO solution) was added to each well, and for the positive control wells, 10 μL of 10% DMSO was added. 10 μL of 10% DMSO was also added to the negative control well.
10 μL of 1 mM ATP was added to all of the wells, and the reaction was carried out at 37° C. for two hours.

The term IC50 denotes the point on the concentration scale where inhibition reaches its midpoint. Take `Nc1nc(SCC2CNC(=O)O2)cc(-c2c(Cl)cc3c4c(cccc24)COC3)n1` (centres unmarked) [Example 330, 5-[2-amino-6-(5-chloro-1H,3H-benzo[de]isochromen-6-yl)-pyrimidin-4-ylsulfanylmethyl]-oxazolidin-2-one]: the values for the IC50 with HCT116 cells and at Human HSP90 alpha were 2.1 µM and 1.2 µM, respectively.
For `Nc1nc(SCCC(=O)NC[C@@H](O)CO)cc(-c2c(Cl)cc3c4c(cccc24)COC3)n1` [Example 320, 3-[2-amino-6-(5-chloro-1H,3H-benzo[de]isochromen-6-yl)-pyrimidin-4-ylsulfanyl]-N—((R)-2,3-dihydroxy-propyl)-propionamide], the IC50 in the test on HCT116 cells was found to be 0.63 µM; at Human HSP90 alpha it was 1.4 µM.
The corresponding values for `Nc1nc(SCc2ccccc2)nc(-c2cc(OCc3ccccc3)c(Cl)cc2Cl)n1` [Example 4, 4-(5-benzyloxy-2,4-dichlorophenyl)-6-benzylsulfanyl[1,3,5]triazin-2-ylamine] are 8.5 µM and 1.2 µM.
Turning to `CC(CSc1cc(-c2c(Cl)cc3c4c(cccc24)COC3)nc(N)n1)C(=O)NCCO` (centres unmarked) [Example 323, 3-[2-amino-6-(5-chloro-1H,3H-benzo[de]isochromen-6-yl)-pyrimidin-4-ylsulfanyl]-N-(2-hydroxy-ethyl)-2-methyl-propionamide], the IC50 came out at 0.21 µM with HCT116 cells and 2.8 µM on Human HSP90 alpha.
Turning to `COC(=O)CSc1nc(N)nc(-c2c(Cl)cc3c4c(cccc24)COC3)n1` [Example 111, [4-amino-6-(5-chloro-1H,3H-benzo[de]isochromen-6-yl)-[1,3,5]triazin-2-ylsulfanyl]-acetic acid methyl ester], the IC50 came out at 0.2 µM in the test with HCT116 cells and 1.1 µM at Human HSP90 alpha.
On the same counts, the results for `COCCNC(=O)CCSc1nc(N)nc(-c2c(Cl)cc3c4c(cccc24)COC3)n1` [Example 334, 3-[4-amino-6-(5-chloro-1H,3H-benzo[de]isochromen-6-yl)-[1,3,5]triazin-2-ylsulfanyl]-N-(2-methoxy-ethyl)-propionamide] are 0.16 µM and 1.3 µM.
Consider `COc1ccc(OC)c(Sc2cc(-c3ccc(OCC#N)cc3C)nc(N)n2)c1` [Example 45, {4-[2-amino-6-(2,5-dimethoxyphenylsulfanyl)-pyrimidin-4-yl]-3-methylphenoxy}-acetonitrile], for which the IC50 in the test with HCT116 cells was 4.1 µM; on Human HSP90 alpha it was 1.4 µM.
On the same counts, the results for `COc1ccc(OC)c(Sc2nc(N)nc(-c3c(Cl)cc4c5c(cccc35)COC4)n2)c1` [Example 145, 4-(5-Chloro-1H,3H-benzo[de]isochromen-6-yl)-6-(2,5-dimethoxyphenylsulfanyl)-[1,3,5]triazin-2-ylamine] are 0.24 µM and 1.9 µM.
The corresponding values for `COc1ccc(OC)c(Sc2cc(-c3ccc(Cl)cc3Cl)nc(N)n2)c1` [Example 39, 4-(2,4-dichlorophenyl)-6-(2,5-dimethoxyphenylsulfanyl)-pyrimidin-2-ylamine] are 8.5 µM and 1.8 µM.
On the same counts, the results for `COC(=O)c1cc(-c2nc(N)nc(SCC(O)CO)n2)c(C)cc1C` (centres unmarked) [Example 37, 5-[4-amino-6-(2,3-dihydroxypropylsulfanyl)-[1,3,5]triazin-2-yl]-2,4-dimethylbenzoic acid methyl ester] are 6.6 µM and 1.4 µM.
Turning to `CC(=O)NCCSc1cc(-c2c(Cl)cc3c4c(cccc24)COC3)nc(N)n1` [Example 327, N-{2-[2-amino-6-(5-chloro-1H,3H-benzo[de]isochromen-6-yl)-pyrimidin-4-ylsulfanyl]-ethyl}-acetamide], the IC50 in the test with HCT116 cells amounted to 0.93 µM; at Human HSP90 alpha, 2.1 µM.
The corresponding values for `N#CCOc1cc(-c2cc(Sc3nc4ccccc4[nH]3)nc(N)n2)c(Cl)cc1Cl` [Example 54, {5-[2-amino-6-(1H-benzimidazol-2-ylsulfanyl)-pyrimidin-4-yl]-2,4-dichlorophenoxy}-acetonitrile] are 1.1 µM and 1.5 µM.
On the same counts, the results for `NC(=O)CCSc1cc(-c2c(Cl)cc3c4c(cccc24)COC3)nc(N)n1` [Example 316, 3-[2-amino-6-(5-chloro-1H,3H-benzo[de]isochromen-6-yl)-pyrimidin-4-ylsulfanyl]-propionamide] are 0.45 µM and 2.1 µM.
In the case of `CC(=O)Nc1ccccc1CSc1nc(N)nc(-c2c(Cl)cc3c4c(cccc24)COC3)n1` [Example 143, N-{2-[4-Amino-6-(5-chloro-1H,3H-benzo[de]isochromen-6-yl)-[1,3,5]triazin-2-ylsulfanylmethyl]-phenyl}-acetamide], the values for the 50% inhibitory concentration (IC50) with HCT116 cells and at Human HSP90 alpha were 0.28 µM and 1 µM, respectively.
Regarding `Nc1nc(SCc2ccccc2)nc(-c2cc(C(=O)NC(CO)CO)c(Cl)cc2Cl)n1` [Example 28, 5-(4-amino-6-benzylsulfanyl-[1,3,5]triazin-2-yl)-2,4-dichloro-N-(2-hydroxy-1-hydroxymethylethyl)-benzamide], the concentration for half-maximal inhibition (IC50) in the test with HCT116 cells and at Human HSP90 alpha was 1.2 µM each time.
As to `COc1ccc(OC)c(Sc2cc(-c3cc(OCC#N)c(Cl)cc3Cl)nc(N)n2)c1` [Example 52, {5-[2-amino-6-(2,5-dimethoxyphenylsulfanyl)-pyrimidin-4-yl]-2,4-dichlorophenyoxy}-acetonitrile], the IC50 in the test on HCT116 cells came to 1.4 µM; on Human HSP90 alpha, 1.7 µM.
